Measured values reported in patent US9181193B2, “Indenoquinolone compound, preparation method and use thereof” (Second Military Medical University, PLA, priority 2010, dated 2015).

Legend:
Format in all cases: cell-based
[1] = tested on: MDA-MB-435 (human breast cancer cells); assay: MTT in vitro anti-tumor activity test, MDA-MB-435
[2] = tested on: HepG2 (human hepatoma cells); assay: MTT in vitro anti-tumor activity test, HepG2
[3] = tested on: Colo205 (human colon cancer cells); assay: MTT in vitro anti-tumor activity test, Colo205
[4] = tested on: A549 (human lung cancer cells); assay: MTT in vitro anti-tumor activity test, A549
[5] = MDA-MB-435, 100 μg/mL, MTT, 72 h
[6] = MDA-MB-435 human breast cancer cells, MTT, 72 h
[7] = HepG2 human hepatoma cells, MTT, 72 h
[8] = Colo205 human colon cancer cells, MTT, 72 h
[9] = A549 human lung cancer cells, MTT, 72 h
[10] = MTT assay, 72 h incubation, MDA-MB-435 cells
[11] = inhibition at 100 μg/mL, MTT assay, 72 h, MDA-MB-435 cells
[12] = MTT assay, 72 h incubation, HepG2 cells
[13] = inhibition at 100 μg/mL, MTT assay, 72 h, HepG2 cells
[14] = MTT assay, 72 h incubation, Colo205 cells
[15] = inhibition at 100 μg/mL, MTT assay, 72 h, Colo205 cells
[16] = MTT assay, 72 h incubation, A549 cells
[17] = inhibition at 100 μg/mL, MTT assay, 72 h, A549 cells

SMILES	MDA-MB-435 100 μg/mL IC % [1, 5] [%]	MDA-MB-435 IC50 [1, 6] [µg/mL]	HepG2 100 μg/mL IC % ([2]; HepG2, 100 μg/mL, MTT, 72 h) [%]	HepG2 IC50 [2, 7] [µg/mL]	Colo205 100 μg/mL IC % ([3]; Colo205, 100 μg/mL, MTT, 72 h) [%]	Colo205 IC50 [3, 8] [µg/mL]	A549 100 μg/mL IC % ([4]; A549, 100 μg/mL, MTT, 72 h) [%]	A549 IC50 [4, 9] [µg/mL]	MDA-MB-435 IC50 [1, 10] [µg/mL]	MDA-MB-435 100 μg/mL IC % [1, 11] [%]	HepG2 IC50 [2, 12]	HepG2 100 μg/mL IC % [2, 13] [%]	Colo205 IC50 [3, 14] [µg/mL]	Colo205 100 μg/mL IC % [3, 15] [%]	A549 IC50 [4, 16] [µg/mL]	A549 100 μg/mL IC % [4, 17] [%]
COc1ccc2c(c1)C(=O)c1c-2c(OCCCN(C)C)nc2cc(OC)c(OC)cc12 [Compound 25]	85.38	2.66	89.70	1.58	90.36	1.15	100	2.02	–	–	–	–	–	–	–	–
COc1cc2nc(OCCN(C)C)c3c(c2cc1OC)C(=O)c1cc(Cl)ccc1-3 [Compound 26]	100	10.51	97.91	11.27	100	1.45	100	6.89	–	–	–	–	–	–	–	–
COc1cc2nc(OCCn3ccnc3)c3c(c2cc1OC)C(=O)c1cc(Cl)ccc1-3 [Compound 27]	51.23	91.52	57.51	56.61	66.27	25.50	35.12	>100	–	–	–	–	–	–	–	–
COc1cc2nc(OCCCN(C)C)c3c(c2cc1OC)C(=O)c1cc(Cl)ccc1-3 [Compound 29]	100	1.45	91.20	3.71	98.69	1.47	100	1.04	–	–	–	–	–	–	–	–
COc1ccc2c(c1)C(=O)c1c-2c(OCCBr)nc2ccccc12 [Compound 30]	31.90	>100	0	>100	21.11	>100	19.48	>100	–	–	–	–	–	–	–	–
COc1ccc2c(c1)C(=O)c1c-2c(=O)n(CCN2CCCC2)c2ccccc12 [Compound 32]	–	–	–	–	–	–	–	–	10.73	96.48	6.92 µg/mL	70.03	7.45	92.85	8.58	92.32
COc1ccc2c(c1)C(=O)c1c-2c(=O)n(CCN2CCOCC2)c2ccccc12 [Compound 33]	–	–	–	–	–	–	–	–	>100	27.19	>100 µg/mL	4.57	>100	29.31	>100	40.55
COc1ccc2c(c1)C(=O)c1c-2c(=O)n(CCCN(C)C)c2ccccc12 [Compound 34]	–	–	–	–	–	–	–	–	19.78	100	≈100 μg/mL	49.68	6.82	99.54	6.58	100
CN(C)CCn1c(=O)c2c(c3ccccc31)C(=O)c1cc(Cl)ccc1-2 [Compound 35]	–	–	–	–	–	–	–	–	3.88	100	20.09 µg/mL	100	3.89	100	19.04	72.15
CCN(CC)CCn1c(=O)c2c(c3ccccc31)C(=O)c1cc(Cl)ccc1-2 [Compound 36]	–	–	–	–	–	–	–	–	28.86	83.69	61.69 µg/mL	59.74	28.58	79.84	78.22	61.01
O=C1c2cc(Cl)ccc2-c2c1c1ccccc1n(CCN1CCCC1)c2=O [Compound 37]	–	–	–	–	–	–	–	–	41.01	70.26	>100 µg/mL	24.95	36.76	69.37	58.58	61.64
